Legend:
[1] = system: 5-HT1A serotonin receptor subtype; conditions: buspirone as standard for anxiolytic activity; cited from earlier work
[2] = molecular target: T1, 5-HT1A serotonin receptor (Rattus norvegicus, UniProt P19327); experiment: displacement of [^3 H] 8-OHDPAT (dipropylaminotetralin) from the 5-HT1A serotonin receptor (Hall et al., J. Neurochem. 44, 1685 (1985)); conditions: read-out: 5-HT1A Binding (IC50)
T1 construct: following the procedure of Hall et al., J. Neurochem; 44, 1685 (1985); from tissue
T1 sequence (P19327 1-422): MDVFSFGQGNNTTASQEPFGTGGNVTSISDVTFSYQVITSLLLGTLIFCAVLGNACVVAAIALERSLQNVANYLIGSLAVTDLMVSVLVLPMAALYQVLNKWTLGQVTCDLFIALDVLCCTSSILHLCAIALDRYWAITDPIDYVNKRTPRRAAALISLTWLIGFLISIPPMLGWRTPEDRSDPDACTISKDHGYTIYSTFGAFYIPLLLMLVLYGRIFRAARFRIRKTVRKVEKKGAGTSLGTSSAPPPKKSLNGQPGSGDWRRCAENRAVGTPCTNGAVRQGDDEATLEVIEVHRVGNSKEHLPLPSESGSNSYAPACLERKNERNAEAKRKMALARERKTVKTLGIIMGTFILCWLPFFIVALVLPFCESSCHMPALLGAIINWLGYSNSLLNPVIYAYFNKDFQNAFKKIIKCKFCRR
Experimental: Representative compounds of the present invention were evaluated and determined to have high affinity for the serotonin 5-HT1A receptor by testing the compound's ability to displace [^3 H] 8-OHDPAT (dipropylaminotetralin) from the 5-HT1A serotonin receptor following the procedure of Hall et al., J. Neurochem. 44, 1685 (1985). […] The anxiolytic activity of buspirone is believed to be, at least partially, due to its 5-HT1A receptor affinity (Vander Maclen et al., Eur. J. Pharmacol. 1986,129 (1-2)[…]).

Compound	5-HT1A receptor affinity (in words) [1]	IC50 [2] [nM]
O=C1CC2(CCCC2)CC(=O)N1CCCCN1CCN(c2ncccn2)CC1 [buspirone]	potent affinity	–
COc1ccsc1C1CCN(C[C@H](Cc2ccccc2)NC(=O)C2CCCCC2)CC1 [Example 4, Cyclohexanecarboxylic acid {(1S)-1-benzyl-2-[4-(3-methoxy-thiophen-2-yl)-piperidin-1-yl]-ethyl}-amide]	–	1.1
COc1ccsc1C1(O)CCN(C[C@H](Cc2ccccc2)NC(=O)OC(C)(C)C)CC1 [Example 1, (S)-{1-Benzyl-2-[4-hydroxy-4-(3-methoxy-thiophen-2-yl)-piperidin-1-yl]-ethyl}-carbamic acid tert-butyl ester]	–	80
COc1ccsc1C1=CCN(C[C@H](Cc2ccccc2)NC(=O)OC(C)(C)C)CC1 [Example 2, (S)-{1-Benzyl-2-[4-(3-methoxy-thiophen-2-yl)-3,6-dihydro-2H-pyridin-1-yl]-ethyl}-carbamic acid tert-butyl ester]	–	1.6
COc1ccsc1C1=CCN(C[C@H](Cc2ccccc2)NC(=O)C2CCCCC2)CC1 [Example 3, (S)-cyclohexanecarboxylic acid {1-benzyl-2-[4-(3-methoxy-thiophen-2-yl)-3,6-dihydro-2H-pyridin-1-yl]-ethyl}-amide]	–	0.78
